{"source": "the supplement of paper PMC10307832", "experiment_in_all_cases": "relative viability (nuclei count vs DMSO), 5 days (fraction); higher = more cells survive", "key": {"[1]": {"tested_on": "201T", "method_in_brief": "(§1)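 Nuclei were stained with Hoechst during a one-step fixation (final 0.05% Triton X-100, 1% formaldehyde, 1 ug/ml Hoechst) carried out 5 days after dosing, then counted on 4× images. The cells, lung cancer lines in 1536-well plates, had been dosed by pin tool the day after seeding with one drug alone or a fixed anchor-drug dose plus five library-drug doses (not always all listed) in √10 steps. Relative viability is the nuclei count in treated wells divided by that in vehicle wells, and each value is the median of duplicate plates.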"}, "[2]": {"tested_on": "CAL-12T", "method_in_brief": "as §1"}, "[3]": {"tested_on": "COR-L23", "method_in_brief": "as §1"}, "[4]": {"tested_on": "ChaGo-K-1", "method_in_brief": "as §1"}, "[5]": {"tested_on": "HOP-62", "method_in_brief": "as §1"}, "[6]": {"tested_on": "LC-2-ad", "method_in_brief": "as §1"}, "[7]": {"tested_on": "NCI-H1355", "method_in_brief": "as §1"}, "[8]": {"tested_on": "NCI-H1651", "method_in_brief": "as §1"}, "[9]": {"tested_on": "NCI-H1666", "method_in_brief": "as §1"}, "[10]": {"tested_on": "NCI-H1734", "method_in_brief": "as §1"}, "[11]": {"tested_on": "NCI-H1944", "method_in_brief": "as §1"}, "[12]": {"tested_on": "NCI-H1993", "method_in_brief": "as §1"}, "[13]": {"tested_on": "NCI-H2085", "method_in_brief": "as §1"}, "[14]": {"tested_on": "NCI-H2170", "method_in_brief": "as §1"}, "[15]": {"tested_on": "NCI-H2228", "method_in_brief": "as §1"}, "[16]": {"tested_on": "NCI-H322M", "method_in_brief": "as §1"}, "[17]": {"tested_on": "NCI-H520", "method_in_brief": "as §1"}, "[18]": {"tested_on": "NCI-H661", "method_in_brief": "as §1"}, "[19]": {"tested_on": "NCI-H838", "method_in_brief": "as §1"}, "[20]": {"tested_on": "RERF-LC-KJ", "method_in_brief": "as §1"}}}
{"compound": "COCC1(CO)C(=O)C2CCN1CC2", "note": "(centres undefined) [PRIMA-1MET] + C[C@@H](Oc1cc(-c2cnn(C3CCNCC3)c2)cnc1N)c1c(Cl)ccc(F)c1Cl [Crizotinib] (partner 1 µM)", "values": [{"measurement": "relative viability", "setting": "[1]; first compound 0.2 µM", "value": 1.11}, {"measurement": "relative viability", "setting": "[1]; first compound 0.6325 µM", "value": 1}, {"measurement": "relative viability", "setting": "[1]; first compound 2 µM", "value": 0.901}, {"measurement": "relative viability", "setting": "[1]; first compound 6.325 µM", "value": 1.06}, {"measurement": "relative viability", "setting": "[1]; first compound 20 µM", "value": 1.04}, {"measurement": "relative viability", "setting": "[2]; first compound 0.2 µM", "value": 0.788}, {"measurement": "relative viability", "setting": "[2]; first compound 0.6325 µM", "value": 0.834}, {"measurement": "relative viability", "setting": "[2]; first compound 2 µM", "value": 0.687}, {"measurement": "relative viability", "setting": "[2]; first compound 6.325 µM", "value": 0.661}, {"measurement": "relative viability", "setting": "[2]; first compound 20 µM", "value": 0.283}, {"measurement": "relative viability", "setting": "[3]; first compound 0.2 µM", "value": 0.704}, {"measurement": "relative viability", "setting": "[3]; first compound 0.6325 µM", "value": 0.612}, {"measurement": "relative viability", "setting": "[3]; first compound 2 µM", "value": 0.61}, {"measurement": "relative viability", "setting": "[3]; first compound 6.325 µM", "value": 0.565}, {"measurement": "relative viability", "setting": "[3]; first compound 20 µM", "value": 0.0228}, {"measurement": "relative viability", "setting": "[4]; first compound 0.2 µM", "value": 1.31}, {"measurement": "relative viability", "setting": "[4]; first compound 0.6325 µM", "value": 0.898}, {"measurement": "relative viability", "setting": "[4]; first compound 2 µM", "value": 1.02}, {"measurement": "relative viability", "setting": "[4]; first compound 6.325 µM", "value": 1.15}, {"measurement": "relative viability", "setting": "[4]; first compound 20 µM", "value": 1.02}, {"measurement": "relative viability", "setting": "[5]; first compound 0.2 µM", "value": 0.999}, {"measurement": "relative viability", "setting": "[5]; first compound 0.6325 µM", "value": 0.76}, {"measurement": "relative viability", "setting": "[5]; first compound 2 µM", "value": 0.666}, {"measurement": "relative viability", "setting": "[5]; first compound 6.325 µM", "value": 0.969}, {"measurement": "relative viability", "setting": "[5]; first compound 20 µM", "value": 0.768}, {"measurement": "relative viability", "setting": "[6]; first compound 0.2 µM", "value": 0.484}, {"measurement": "relative viability", "setting": "[6]; first compound 0.6325 µM", "value": 0.434}, {"measurement": "relative viability", "setting": "[6]; first compound 2 µM", "value": 0.398}, {"measurement": "relative viability", "setting": "[6]; first compound 6.325 µM", "value": 0.39}, {"measurement": "relative viability", "setting": "[6]; first compound 20 µM", "value": 0.382}, {"measurement": "relative viability", "setting": "[7]; first compound 0.2 µM", "value": 1.2}, {"measurement": "relative viability", "setting": "[7]; first compound 0.6325 µM", "value": 1.02}, {"measurement": "relative viability", "setting": "[7]; first compound 2 µM", "value": 0.897}, {"measurement": "relative viability", "setting": "[7]; first compound 6.325 µM", "value": 1.05}, {"measurement": "relative viability", "setting": "[7]; first compound 20 µM", "value": 1.03}, {"measurement": "relative viability", "setting": "[8]; first compound 0.2 µM", "value": 0.991}, {"measurement": "relative viability", "setting": "[8]; first compound 0.6325 µM", "value": 0.788}, {"measurement": "relative viability", "setting": "[8]; first compound 2 µM", "value": 0.741}, {"measurement": "relative viability", "setting": "[8]; first compound 6.325 µM", "value": 0.955}, {"measurement": "relative viability", "setting": "[8]; first compound 20 µM", "value": 0.888}, {"measurement": "relative viability", "setting": "[9]; first compound 0.2 µM", "value": 1.15}, {"measurement": "relative viability", "setting": "[9]; first compound 0.6325 µM", "value": 0.9}, {"measurement": "relative viability", "setting": "[9]; first compound 2 µM", "value": 0.987}, {"measurement": "relative viability", "setting": "[9]; first compound 6.325 µM", "value": 1.25}, {"measurement": "relative viability", "setting": "[9]; first compound 20 µM", "value": 0.443}, {"measurement": "relative viability", "setting": "[10]; first compound 0.2 µM", "value": 0.696}, {"measurement": "relative viability", "setting": "[10]; first compound 0.6325 µM", "value": 0.573}, {"measurement": "relative viability", "setting": "[10]; first compound 2 µM", "value": 0.614}, {"measurement": "relative viability", "setting": "[10]; first compound 6.325 µM", "value": 0.677}, {"measurement": "relative viability", "setting": "[10]; first compound 20 µM", "value": 0.171}, {"measurement": "relative viability", "setting": "[11]; first compound 0.2 µM", "value": 1.36}, {"measurement": "relative viability", "setting": "[11]; first compound 0.6325 µM", "value": 0.817}, {"measurement": "relative viability", "setting": "[11]; first compound 6.325 µM", "value": 1.09}, {"measurement": "relative viability", "setting": "[11]; first compound 20 µM", "value": 1.06}, {"measurement": "relative viability", "setting": "[12]; first compound 0.2 µM", "value": 1.14}, {"measurement": "relative viability", "setting": "[12]; first compound 0.6325 µM", "value": 0.892}, {"measurement": "relative viability", "setting": "[12]; first compound 2 µM", "value": 0.738}, {"measurement": "relative viability", "setting": "[12]; first compound 6.325 µM", "value": 0.883}, {"measurement": "relative viability", "setting": "[12]; first compound 20 µM", "value": 0.822}, {"measurement": "relative viability", "setting": "[13]; first compound 0.2 µM", "value": 0.886}, {"measurement": "relative viability", "setting": "[13]; first compound 0.6325 µM", "value": 0.747}, {"measurement": "relative viability", "setting": "[13]; first compound 2 µM", "value": 0.692}, {"measurement": "relative viability", "setting": "[13]; first compound 6.325 µM", "value": 0.518}, {"measurement": "relative viability", "setting": "[13]; first compound 20 µM", "value": 0.155}, {"measurement": "relative viability", "setting": "[14]; first compound 0.2 µM", "value": 1.38}, {"measurement": "relative viability", "setting": "[14]; first compound 0.6325 µM", "value": 1.13}, {"measurement": "relative viability", "setting": "[14]; first compound 2 µM", "value": 1.02}, {"measurement": "relative viability", "setting": "[14]; first compound 6.325 µM", "value": 1.26}, {"measurement": "relative viability", "setting": "[14]; first compound 20 µM", "value": 1.21}, {"measurement": "relative viability", "setting": "[15]; first compound 0.2 µM", "value": 0.414}, {"measurement": "relative viability", "setting": "[15]; first compound 0.6325 µM", "value": 0.455}, {"measurement": "relative viability", "setting": "[15]; first compound 2 µM", "value": 0.444}, {"measurement": "relative viability", "setting": "[15]; first compound 6.325 µM", "value": 0.547}, {"measurement": "relative viability", "setting": "[15]; first compound 20 µM", "value": 0.0537}, {"measurement": "relative viability", "setting": "[16]; first compound 0.2 µM", "value": 0.75}, {"measurement": "relative viability", "setting": "[16]; first compound 6.325 µM", "value": 0.991}, {"measurement": "relative viability", "setting": "[16]; first compound 20 µM", "value": 0.82}, {"measurement": "relative viability", "setting": "[17]; first compound 0.2 µM", "value": 0.639}, {"measurement": "relative viability", "setting": "[17]; first compound 0.6325 µM", "value": 0.841}, {"measurement": "relative viability", "setting": "[17]; first compound 6.325 µM", "value": 0.659}, {"measurement": "relative viability", "setting": "[17]; first compound 20 µM", "value": 0.135}, {"measurement": "relative viability", "setting": "[18]; first compound 0.2 µM", "value": 1.15}, {"measurement": "relative viability", "setting": "[18]; first compound 6.325 µM", "value": 1.11}, {"measurement": "relative viability", "setting": "[18]; first compound 20 µM", "value": 0.999}, {"measurement": "relative viability", "setting": "[19]; first compound 0.2 µM", "value": 1.06}, {"measurement": "relative viability", "setting": "[19]; first compound 0.6325 µM", "value": 0.755}, {"measurement": "relative viability", "setting": "[19]; first compound 2 µM", "value": 0.793}, {"measurement": "relative viability", "setting": "[19]; first compound 6.325 µM", "value": 0.906}, {"measurement": "relative viability", "setting": "[19]; first compound 20 µM", "value": 0.318}, {"measurement": "relative viability", "setting": "[20]; first compound 0.2 µM", "value": 0.868}, {"measurement": "relative viability", "setting": "[20]; first compound 0.6325 µM", "value": 0.767}, {"measurement": "relative viability", "setting": "[20]; first compound 2 µM", "value": 0.86}, {"measurement": "relative viability", "setting": "[20]; first compound 6.325 µM", "value": 0.85}, {"measurement": "relative viability", "setting": "[20]; first compound 20 µM", "value": 0.847}]}
